# Where two headings read alike, the source gives them in different places. Where a SMILES comes first, the peptide text is derived from it.
# Assays:
# BXPC-3 = type: cell-based, human
# T47D = type: cell-based, human; settings: T47D
# Description: (§1) A total of 3×10^3 cells were inoculated per well on a 96 well plate and cultured in a medium containing 10% FBS for 24 hours, and incubated with 100 μl of a peptide having a gradual increase in concentration at 37° C. for 48 to 72 hours. The survival rate of the cells was measured by using WST-8 solution (Cell Count Reagent SF; Nacalai Tesque, Inc.).
# [1] = target: T1, interaction between Hsp90 and the Hop's TPR2A domain (Homo sapiens, UniProt P07900); test: BIACORE competition: Hsp90 pre-mixed with peptide, added to immobilized TPR2A; type: binding; settings: increasing peptide concentration
# T1 construct: histidine tag; made in house; host or cells: Hsp90: E. coli BL21 (pDEST17-Hsp90)
# Excerpt: It was examined whether the TPR peptide designed could compete specifically with the interaction between Hsp90, which is essential for the accurate folding of some carcinogenic protein including survivin in cancer cells, and the Hop's TPR2A domain.
# HEK293 = test: cells; type: cell-based, human; settings: Homo sapiens, HEK293; Normal cells HEK; averages of two independent experiments; read-out: Anti-tumor activity, IC50
# Description: as §1
# (§2) A total of 3×10^3 cells per well were inoculated onto a 96 well plate, and incubated in a medium containing 10% FBS with 100 μl of a peptide diluted stepwise at 37° C. for 48 to 72 hours. The survival rate of the cells was measured by using WST-8 solution (Cell Count Reagent SF; Nacalai Tesque, Inc.).
# [2] = system: human lung normal epithelial cell strain (WI38); test: Cell viability assay (WST-8), WI38; type: cell-based; settings: Normal cells W138, averages of two independent experiments, read-out: Anti-tumor activity, IC50
# Description: as §2
# THP-1 = test: cells; type: cell-based, human; settings: for IC50: Human AML cells THP-1, averages of two independent experiments, read-out: Anti-tumor activity, IC50
# Description: as §2
# U937 = test: cells; type: cell-based, human; settings: for IC50: U-937, Human AML cells U937, averages of two independent experiments, read-out: Anti-tumor activity, IC50
# Description: as §2
# HL-60 = test: cells; type: cell-based, human; settings: for IC50: Human AML cells HL-60, averages of two independent experiments, read-out: Anti-tumor activity, IC50
# Description: as §2
# K562 = test: cells; type: cell-based, human; settings: for IC50: Human AML cells K562, averages of two independent experiments, read-out: Anti-tumor activity, IC50
# Description: as §2
# [3] = system: human normal pancreas epithelial cell strain (PE); test: Cell viability assay (WST-8), PE; type: cell-based; settings: Normal cells PE, averages of two independent experiments, read-out: Anti-tumor activity, IC50
# Description: as §2
# Caki-1 [4] = type: cell-based, human; settings: Caki-1, 68 μM
# Description: The TPR peptide or the TPR scramble peptide was mixed with a commercially available transfection reagent (Profect-P2 or, Lipofectamine LTX) and the mixture was left to incubate at room temperature for 20 minutes, to form liposome before the complex was added to cancer cells (Caki-1 (kidney cancer cells)); the survival rate of the cells was then measured by using WST-8 solution (Cell Count Reagent SF; Nacalai Tesque, Inc.) and the results were compared with those such as in the case of the TPR scramble peptide or the liposome alone.
# Caki-1 [5] = type: cell-based, human; settings: Caki-1; wild-type peptide = 100%
# cancer cells = test: Cell viability assay, summary statements on cancer cells; type: cell-based; settings: single mutation in TPR or Antp region of Antp-TPR
compound,measurement,setting,value
CC[C@H](C)[C@H](NC(=O)[C@H](CCCNC(=N)N)NC(=O)[C@H](C)NC(=O)[C@H](Cc1ccc(O)cc1)NC(=O)[C@H](C)NC(=O)[C@H](CCCCN)NC(=O)[C@H](CCCNC(=N)N)NC(=O)[C@H](CCCNC(=N)N)NC(=O)[C@H](CCCNC(=N)N)NC(=O)[C@H](CCC(N)=O)NC(=O)[C@H](CCCNC(=N)N)NC(=O)[C@H](CCCNC(=N)N)NC(=O)[C@H](CCCCN)NC(=O)[C@H](CCCCN)NC(=O)[C@H](CCCNC(=N)N)NC(=O)CNC(=O)[C@@H](N)Cc1ccc(O)cc1)C(=O)NCC(=O)N[C@@H](CC(N)=O)C(=O)N[C@@H](CO)C(=O)N[C@@H](Cc1ccc(O)cc1)C(=O)N[C@@H](Cc1ccccc1)C(=O)N[C@@H](CCCCN)C(=O)O (H-YGRKKRRQRRRKAYARIGNSYFK-OH),Cell Survival Rate (%),"BXPC-3; Bxpc3, 21 μM",82.25%
same,Cell Survival Rate (%),"BXPC-3; Bxpc3, 42 μM",73.08%
same,Cell Survival Rate (%),"BXPC-3; Bxpc3, 84 μM",60.49%
same,Cell Survival Rate (%),"BXPC-3; Bxpc3, 168 μM",47.24%
same,Cell Survival Rate (%),T47D; 21 μM,77.68%
same,Cell Survival Rate (%),T47D; 42 μM,58.60%
same,Cell Survival Rate (%),T47D; 84 μM,74.23%
same,Cell Survival Rate (%),T47D; 168 μM,17.92%
"TPR mutant 1: TPR mutant 1 peptide without Antp, SEQ ID No. 70; sequence not printed in the text (KAYAAAGNSYTFK; TPR mutant 1)",inhibition of the interaction between Hsp90 and TPR2A,[1],does not inhibit the interaction completely
"COC1=C2C[C@@H](C)C[C@H](OC)[C@H](O)[C@@H](C)/C=C(\C)[C@H](OC(N)=O)[C@@H](OC)/C=C\C=C(/C)C(=O)NC(=CC1=O)C2=O [Geldanamycin, geldanamycin]",IC50,HEK293,700 nM
same,IC50,[2],1000 nM
same,IC50,THP-1,700 nM
same,Cell Survival Rate (%),"THP-1; THP-1, 1.25 μM",6.20%
same,Cell Survival Rate (%),"THP-1; THP-1, 2.5 μM",5.01%
same,Cell Survival Rate (%),"THP-1; THP-1, 5 μM",4.49%
same,Cell Survival Rate (%),"THP-1; THP-1, 10 μM",7.12%
same,Cell Survival Rate (%),"U937; U937, 1.25 μM",5.40%
same,Cell Survival Rate (%),"U937; U937, 2.5 μM",6.26%
same,Cell Survival Rate (%),"U937; U937, 5 μM",4.65%
same,Cell Survival Rate (%),"U937; U937, 10 μM",5.78%
same,IC50,U937,650 nM
same,Cell Survival Rate (%),"HL-60; HL-60, 1.25 μM",6.65%
same,Cell Survival Rate (%),"HL-60; HL-60, 2.5 μM",6.02%
same,Cell Survival Rate (%),"HL-60; HL-60, 5 μM",5.03%
same,Cell Survival Rate (%),"HL-60; HL-60, 10 μM",5.23%
same,IC50,HL-60,700 nM
same,IC50,K562,750 nM
same,Cell Survival Rate (%),"K562; K562, 1.25 μM",20.08%
same,Cell Survival Rate (%),"K562; K562, 2.5 μM",9.75%
same,Cell Survival Rate (%),"K562; K562, 5 μM",7.07%
same,Cell Survival Rate (%),"K562; K562, 10 μM",6.60%
same,IC50,[3],700 nM
"CC[C@H](C)[C@H](NC(=O)[C@H](C)NC(=O)[C@H](C)NC(=O)[C@H](CO)NC(=O)[C@H](Cc1ccccc1)NC(=O)[C@H](CCCCN)NC(=O)[C@@H](N)CCCNC(=N)N)C(=O)NCC(=O)N[C@@H](Cc1ccc(O)cc1)C(=O)N[C@@H](CC(N)=O)C(=O)N[C@@H](CCCCN)C(=O)N[C@@H](Cc1ccc(O)cc1)C(=O)O [TPR scramble, reference compound] (H-RKFSAAIGYNKY-OH; N-terminus and C-terminus assumed)",inhibition of the interaction between Hsp90 and TPR2A,[1],does not inhibit the interaction completely
same,killing effect after introduction with transfection reagent,Caki-1 [4],not observed
"C=CCNC1=C2C[C@@H](C)C[C@H](OC)[C@H](O)[C@@H](C)/C=C(\C)[C@H](OC(N)=O)[C@@H](OC)/C=C\C=C(/C)C(=O)NC(=CC1=O)C2=O [Peptide 17-AAG, 17-allylaminogeldanamycin]",IC50,HEK293,700 nM
same,IC50,[2],700 nM
same,IC50,THP-1,750 nM
same,Cell Survival Rate (%),"THP-1; THP-1, 1.25 μM",6.80%
same,Cell Survival Rate (%),"THP-1; THP-1, 2.5 μM",5.49%
same,Cell Survival Rate (%),"THP-1; THP-1, 5 μM",6.56%
same,Cell Survival Rate (%),"THP-1; THP-1, 10 μM",7.76%
same,Cell Survival Rate (%),"U937; U937, 1.25 μM",5.21%
same,Cell Survival Rate (%),"U937; U937, 2.5 μM",4.03%
same,Cell Survival Rate (%),"U937; U937, 5 μM",4.97%
same,Cell Survival Rate (%),"U937; U937, 10 μM",4.16%
same,IC50,U937,700 nM
same,Cell Survival Rate (%),"HL-60; HL-60, 1.25 μM",37.03%
same,Cell Survival Rate (%),"HL-60; HL-60, 2.5 μM",19.70%
same,Cell Survival Rate (%),"HL-60; HL-60, 5 μM",8.37%
same,Cell Survival Rate (%),"HL-60; HL-60, 10 μM",3.87%
same,IC50,HL-60,1050 nM
same,IC50,K562,700 nM
same,Cell Survival Rate (%),"K562; K562, 1.25 μM",5.67%
same,Cell Survival Rate (%),"K562; K562, 2.5 μM",5.08%
same,Cell Survival Rate (%),"K562; K562, 5 μM",5.67%
same,Cell Survival Rate (%),"K562; K562, 10 μM",6.35%
same,IC50,[3],800 nM
CC[C@H](C)[C@H](NC(=O)[C@H](CCCNC(=N)N)NC(=O)[C@H](C)NC(=O)[C@H](Cc1ccc(O)cc1)NC(=O)CNC(=O)[C@H](CCCCN)NC(=O)[C@H](CCCCN)NC(=O)[C@H](CCCCN)NC(=O)[C@H](Cc1c[nH]c2ccccc12)NC(=O)[C@H](CCCCN)NC(=O)[C@H](CCSC)NC(=O)[C@H](CCCNC(=N)N)NC(=O)[C@H](CCCNC(=N)N)NC(=O)[C@H](CC(N)=O)NC(=O)[C@H](CCC(N)=O)NC(=O)[C@H](Cc1ccccc1)NC(=O)[C@H](Cc1c[nH]c2ccccc12)NC(=O)[C@@H](NC(=O)[C@H](CCCCN)NC(=O)[C@@H](NC(=O)[C@H](CCC(N)=O)NC(=O)[C@@H](N)CCCNC(=N)N)[C@@H](C)CC)[C@@H](C)CC)C(=O)NCC(=O)N[C@@H](CC(N)=O)C(=O)N[C@@H](CO)C(=O)N[C@@H](Cc1ccc(O)cc1)C(=O)N[C@@H](Cc1ccccc1)C(=O)N[C@@H](CCCCN)C(=O)O [Antp-A2G] (H-RQIKIWFQNRRMKWKKKGYARIGNSYFK-OH; N-terminus and C-terminus assumed),Cell Survival Rate (%),U937,13.90%
same,killing effect compared with the wild-type peptide,U937; U937,increase in effect
same,Anti-cancer activity (% relative to wild-type peptide),"U937; U937, wild-type peptide = 100%",112.17%
same,Decrease in cell survival rate (% relative to wild-type peptide),"U937; U937, wild-type peptide = 100%",167.23%
same,Anti-cancer activity (% relative to wild-type peptide),Caki-1 [5],100.70%
same,Decrease in cell survival rate (% relative to wild-type peptide),Caki-1 [5],105.96%
same,effect compared with the wild-type protein (summary of mutations),cancer cells,effect higher than the wild-type protein
